In patent US20120288482A1, “THERAPEUTIC AGENT (Y-39983) FOR CORNEAL ENDOTHELIAL DYSFUNCTION” (priority 2009, published 2012):

How the values were obtained:
[1] = tested on: corneal endothelial wound; assay: Rabbit corneal endothelial wound model, topical instillation (Example 1); assay type: in vivo; settings: 10 mM instillation, 6 times a day, 46 hours after wound creation
Description: In this Example, 0.95 mM (0.03 w/v%) compound (I) instillation and 0.32 mM (0.01 w/v%) compound (I) instillation obtained by diluting the above instillation with the above-mentioned vehicle were used.
As a positive control substances, Y-27632 dihydrochloride (Wako Pure Chemical Industries, Co., Ltd., Cat. #253-00513) and fasudil hydrochloride hydrate injection (Eril (registered trade mark) drip intravenous injection, Asahi Kasei Pharma) were purchased, and Y-27632 and Fasudil were each adjusted to 10 mM with phosphate-buffered saline (PBS, Invitrogen, Cat. #14190). In addition, PBS was used as a negative control substance.
Male Japanese white rabbits (body weight 2.5-3.0 kg, 21 rabbits) were purchased from Biotek Co., Ltd. and used. They are kept in individual cages at 23±3° C. temperature, at 55±10% humidity and 12 hours artificial light cycle (lighting on; 8:00 a.m., lighting off; 8:00 p.m.). One hundred grams of solid food (Labo R stock; Nosan Corp.) are provided daily to each animal. Water is supplied by automatic watering apparatus.
3. Excision of Nictitating Membrane of Animal Before starting the test, the nictitating membrane of both eyes of the animal was excised. To be specific, each animal was set in a positioner, and the ocular surface was topically anesthetized by instillation of a topical anesthesia (Benoxil instillation 0.4%, Santen Pharmaceutical Co., Ltd.). Then, the root position of the nictitating membrane was pressed with a clamp for 30 sec, and compressing mark was cut with scissors. After excision of the nictitating membrane, the antibiotic ointment (tarivid eye ointment, Santen Pharmaceutical Co., Ltd.) was instilled to prevent infection. After 4 days from the excision of the nictitating membrane, animals confirmed to have no abnormality in the external eye including the excised site were used.
The corneal thickness of the right eye of each animal was measured with an ultrasonic pachymeter (manufactured by DGH Technologies Inc., DGH-500), and the animals were divided into 4 groups such that the corneal thickness of each group was equal. The animals used for each group were as follows. • 10 mM Y-27632 group=5 eyes • 0.32 mM compound (I) group=5 eyes • 0.95 mM compound (I) group=6 eyes • 10 mM Fasudil group=5 eyes • PBS group=21 eyes (left eye)
The animals were sytemically anesthetized by intramuscular administration of Ketalar muscular injection ([…], DAIICHI SANKYO COMPANY, LIMITED., 0.6 ml) and Celactal 2% Injection (Bayer, Ltd., 0.25 ml). Then, Benoxil instillation 0.4% (Santen Pharmaceutical Co., Ltd., one drop) was instilled and the eye was opened using a lid speculum.
A 7-mm diameter stainless dowel that had been cooled in liquid nitrogen was placed on the central cornea of both eyes of 21 animals for 15 sec. to produce an ice ball in the anterior chamber and dissociate corneal endothelial cells, whereby a corneal endothelial wound was produced.
For topical instillation, after wound creation, compound (I) instillation, Y-27632 instillation or Fasudil instillation was instilled to the right eye, and PBS was instilled to the left eye 6 times a day (4 times on the day of wound production) at 50 μL per instillation. Administration interval in one day was 2 hours. […]

[2] = tested on: cultured monkey corneal endothelial cells; settings: in vitro; cited from earlier work

In the case of `O=S(=O)(c1cccc2cnccc12)N1CCCNCC1` [Fasudil], the “area of the unrepaired wound site (corneal endothelium wound area)” value [1] is listed as 1.7 mm^2, the apoptosis [2] is listed as “suppression of apoptosis” and the cell adhesion [2] is listed as “promotion of cell adhesion”. For the same compound, the cell cycle [2] was “promotion of cell cycle”.
